The values that follow come from ChEMBL document CHEMBL3880429, “Aminopyrimidine compounds and their salts, process for preparation and pharmaceutical use thereof” (2012).

Molecules are shown by their SMILES. Active and inactive are the calls of the source. No cut-off for these calls is given here.

A short description of assay [1]: Antitumor activity against human K562 cells xenografted in BALB/cA nude mouse assessed as tumor growth at 150 mg/kg, po qd administered via gavage for 21 days relative to control. It counts as functional. A general note: In xenograft studies the graft and the host belong to different species.
In assay [2] the target is Bcr/Abl fusion protein (Homo sapiens) (UniProt P00519+P11274). The assay is described as follows: Potency index, ratio of imatinib IC50 to compound IC50 for Bcr-Abl in human K562 cells. In kind it is cell-based.
A short description of assay [3]: Ratio of IC50 for human HL60 cells to IC50 for Bcr-Abl in human K562 cells.
A short description of assay [4]: Cytotoxicity against human HL60 cells assessed as inhibition of cell proliferation after 48 hrs by MTT assay. It counts as functional, cell-based. To be noted: HL-60, 48 h. (In general: Tetrazolium dyes change colour on reduction, which living cells bring about.)
Assay [5] can be described thus: Antitumor activity against human K562 cells xenografted in BALB/cA nude mouse assessed as tumor growth at 37.5 mg/kg, po qd administered via gavage for 21 days relative to control. In kind it is functional.
Assay [6] deals with K562. The assay is described as follows: Antitumor activity against human K562 cells xenografted in po dosed BALB/cA nude mouse assessed as tumor growth inhibition administered as qd via gavage for 21 days. In kind it is functional, organism-based.
For assay [7], the system named is K562. Description: Antitumor activity against human K562 cells xenografted in BALB/cA nude mouse assessed as extinction of tumor at 150 mg/kg, po qd administered via gavage for 21 days. It counts as functional, organism-based.

Bcr/Abl fusion protein (Homo sapiens), sequence (P00519 whole entry, looked up, the tested form may be a part): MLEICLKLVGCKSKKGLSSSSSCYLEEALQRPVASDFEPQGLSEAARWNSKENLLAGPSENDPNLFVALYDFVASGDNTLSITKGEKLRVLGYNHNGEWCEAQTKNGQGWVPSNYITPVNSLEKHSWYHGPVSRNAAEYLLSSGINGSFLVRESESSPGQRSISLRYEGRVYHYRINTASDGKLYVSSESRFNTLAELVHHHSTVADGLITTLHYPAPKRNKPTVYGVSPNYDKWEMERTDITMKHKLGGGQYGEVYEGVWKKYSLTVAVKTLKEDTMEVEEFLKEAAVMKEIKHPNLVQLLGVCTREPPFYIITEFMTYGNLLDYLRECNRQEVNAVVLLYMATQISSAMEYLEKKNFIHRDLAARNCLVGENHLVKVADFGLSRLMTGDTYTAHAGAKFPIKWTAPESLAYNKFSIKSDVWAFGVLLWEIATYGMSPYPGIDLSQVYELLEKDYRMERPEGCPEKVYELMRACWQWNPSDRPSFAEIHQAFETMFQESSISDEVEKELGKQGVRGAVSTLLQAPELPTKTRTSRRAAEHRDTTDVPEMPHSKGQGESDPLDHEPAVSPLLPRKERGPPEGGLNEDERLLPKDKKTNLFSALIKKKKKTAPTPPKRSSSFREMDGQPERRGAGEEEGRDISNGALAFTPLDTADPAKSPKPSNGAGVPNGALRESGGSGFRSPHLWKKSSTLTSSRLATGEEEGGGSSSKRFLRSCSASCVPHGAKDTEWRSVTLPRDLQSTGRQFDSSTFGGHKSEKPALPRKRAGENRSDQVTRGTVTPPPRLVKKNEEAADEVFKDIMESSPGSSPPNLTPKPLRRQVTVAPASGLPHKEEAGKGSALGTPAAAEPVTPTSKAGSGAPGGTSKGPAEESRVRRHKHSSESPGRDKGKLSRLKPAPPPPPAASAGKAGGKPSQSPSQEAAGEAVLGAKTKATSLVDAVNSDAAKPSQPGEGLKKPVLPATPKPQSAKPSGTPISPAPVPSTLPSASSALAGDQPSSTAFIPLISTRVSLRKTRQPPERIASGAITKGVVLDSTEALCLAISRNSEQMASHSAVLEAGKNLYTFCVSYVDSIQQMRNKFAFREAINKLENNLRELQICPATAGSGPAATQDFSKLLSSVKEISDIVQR
Bcr/Abl fusion protein (Homo sapiens), sequence (P11274 whole entry, looked up, the tested form may be a part): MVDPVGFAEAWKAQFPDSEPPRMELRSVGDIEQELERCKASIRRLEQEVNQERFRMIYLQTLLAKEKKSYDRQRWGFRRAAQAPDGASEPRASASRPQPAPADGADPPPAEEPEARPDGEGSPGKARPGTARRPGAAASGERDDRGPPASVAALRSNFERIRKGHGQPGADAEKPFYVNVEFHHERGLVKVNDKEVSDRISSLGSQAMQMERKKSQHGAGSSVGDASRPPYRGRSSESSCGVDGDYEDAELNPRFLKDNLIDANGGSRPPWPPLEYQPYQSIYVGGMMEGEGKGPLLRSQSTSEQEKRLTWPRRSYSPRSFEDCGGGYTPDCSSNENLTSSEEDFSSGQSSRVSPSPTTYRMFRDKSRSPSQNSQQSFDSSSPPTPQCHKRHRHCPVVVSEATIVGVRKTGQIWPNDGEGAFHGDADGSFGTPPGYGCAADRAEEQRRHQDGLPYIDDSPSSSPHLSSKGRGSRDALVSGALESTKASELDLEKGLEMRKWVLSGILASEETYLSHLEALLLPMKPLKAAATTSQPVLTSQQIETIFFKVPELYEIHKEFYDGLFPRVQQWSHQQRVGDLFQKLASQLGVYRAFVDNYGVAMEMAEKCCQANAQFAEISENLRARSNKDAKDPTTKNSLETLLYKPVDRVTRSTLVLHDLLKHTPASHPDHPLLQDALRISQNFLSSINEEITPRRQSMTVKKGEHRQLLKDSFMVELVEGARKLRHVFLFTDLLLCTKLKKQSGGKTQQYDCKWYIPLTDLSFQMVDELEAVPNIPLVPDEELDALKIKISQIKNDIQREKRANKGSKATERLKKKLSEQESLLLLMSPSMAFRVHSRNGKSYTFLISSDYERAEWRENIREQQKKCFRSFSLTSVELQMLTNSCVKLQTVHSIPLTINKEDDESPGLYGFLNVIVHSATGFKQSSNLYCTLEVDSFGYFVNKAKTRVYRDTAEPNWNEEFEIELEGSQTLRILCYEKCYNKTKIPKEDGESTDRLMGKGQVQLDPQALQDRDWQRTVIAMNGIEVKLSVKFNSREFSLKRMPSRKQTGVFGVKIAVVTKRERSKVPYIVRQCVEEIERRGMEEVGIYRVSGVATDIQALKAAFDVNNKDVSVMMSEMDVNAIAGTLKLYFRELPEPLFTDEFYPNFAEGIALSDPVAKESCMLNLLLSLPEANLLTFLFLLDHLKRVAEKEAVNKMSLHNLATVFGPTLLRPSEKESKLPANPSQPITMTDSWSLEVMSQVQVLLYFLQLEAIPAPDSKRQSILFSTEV

Broadly, the T/C is the ratio of treated to control. For `CS(=O)(=O)O.Cc1ccc(NC(=O)c2ccc(CN3CCN(C)CC3)cc2)cc1Nc1nccc(-c2cccnc2)n1` [IMATINIB MESYLATE], the T/C in assay [1] was 34.2 - 117.7%.

As for `CS(=O)(=O)O.Cc1ncc(NC(=O)c2ccc(CN3CCN(C)CC3)c(Cl)c2)cc1Nc1nccc(-c2cccnc2)n1`, the Ratio IC50 came to 4 in assay [2] and 125 in assay [3]. Besides, in assay [1], the T/C worked out at 47.4%.

The IC50 is the concentration at which inhibition is half-maximal. With `CS(=O)(=O)O.Cc1ncc(NC(=O)c2ccc(CN3CCN(C)CC3)c(C(F)(F)F)c2)cc1Nc1nccc(-c2cccnc2)n1`, the IC50 in assay [4] was 10 µM. Further, the T/C in assay [5] is 40.4%; in assay [1], 0%. Also, the TGI entry in assay [6] is “Dose-dependent effect”. Further, the outcome in assay [7] was Active.
